Data on twelve compounds can be found in paper PMC9863159, “Isolation and Identification of Lipid-Lowering Peptides from Sacha Inchi Meal” (International Journal of Molecular Sciences, 2023).

Test [1] addresses T1, pancreatic lipase (Sus scrofa, UniProt P00591).
T1 sequence (P00591 1-450): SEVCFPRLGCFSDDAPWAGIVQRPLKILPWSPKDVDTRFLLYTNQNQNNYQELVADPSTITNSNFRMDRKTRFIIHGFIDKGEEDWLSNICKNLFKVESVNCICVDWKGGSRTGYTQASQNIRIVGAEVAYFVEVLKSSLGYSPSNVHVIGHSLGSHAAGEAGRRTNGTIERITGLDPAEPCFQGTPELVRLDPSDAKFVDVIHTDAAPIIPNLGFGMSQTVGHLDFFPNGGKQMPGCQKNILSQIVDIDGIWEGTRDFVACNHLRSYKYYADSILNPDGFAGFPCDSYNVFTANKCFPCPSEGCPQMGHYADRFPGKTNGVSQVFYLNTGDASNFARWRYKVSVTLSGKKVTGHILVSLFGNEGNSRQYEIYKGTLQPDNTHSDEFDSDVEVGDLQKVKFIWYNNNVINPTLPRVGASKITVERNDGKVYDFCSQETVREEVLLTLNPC
The test can be described thus: Pancreatic lipase inhibitory activity (4-MUO fluorescence). It counts as biochemical. The note with it: for inhibition at 500 µM: peptide concentration 0.5 mM, read-out: inhibitory percentage on pancreatic lipase; for IC50: read-out: IC50 against pancreatic lipase. How it is done: The sample was diluted to an appropriate concentration with Tris HCl buffer. […] The fluorescence intensity was measured at excitation wavelength λex = 320 nm and emission wavelength λem = 450 nm. A buffer (25 μL) and enzyme solution (25 μL) were added for the control group. A sample solution (25 μL) and buffer (25 μL) were added for background group. Each group of experiments was repeated 3 times. The calculation formula of pancreatic lipase inhibition rate was as follows:(1) Lipase inhibition rate (%)=(1−FLUsample−FLUbackground/FLUnegative control−FLUnegative background)×100
Among them, FLUsample was the light absorption value of the experimental group; FLUbackground was the light absorption value of the sample background group; FLUnegative control was the absorbance value of the control group without samples; and FLUnegative background was the absorbance value of the background of the control group.

Test [2] concerns the target T1, pancreatic lipase. In words: Inhibition kinetics of pancreatic lipase (Lineweaver–Burk). It counts as biochemical. The note with it: read-out: equilibrium constant Ki. On the procedure:
In total, a 25 μL sample solution of different concentrations, a 25 μL enzyme solution, and 50 μL substrates with different concentrations were added to the 96-well plate. The fluorescence value FLU was immediately measured at the excitation wavelength λex = 320 nm and emission wavelength λem = […], every 1 min within 20 min, and each group of experiments was repeated 3 times. The slope of the “fluorescence value-time” linear fitting curve represented the reaction rate of the enzyme in the presence of the sample. The Lineweaver–Burk double reciprocal diagram was drawn to analyze the inhibition type of synthetic peptides on enzymes.

For test [3], the target named is T1, pancreatic lipase. In words: Fluorescence quenching assay of pancreatic lipase. The note with it: binding constant Ka, Table S2.
A further test concerns HepG2 cells. In words: Fat accumulation (oil red O) and triglyceride content in oleic acid-induced HepG2. It counts as cell-based. The note with it: orlistat positive control 2 mM, peptides at different concentrations.
Test [4] deals with T1, pancreatic lipase. Also on record: method as in PMID 36195236. As to conditions: peptides from sesame proteins ref 6; cited from earlier work.
For a further test, the system named is 3T3-L1 preadipocytes. Also on record: method as in doi:10.1016/j.jff.2018.05.066. As to conditions: 600 μg/mL, compared with the control ref 24; cited from earlier work.
In test [5] the test system is porcine pancreatic lipase. Details: method as in PMID 31569521. As to conditions: 200 µg/mL ref 25; cited from earlier work.
The test system of another test is 3T3-L1 cells. Details: method as in PMID 31569521. The note with it: 600 µg/mL, 3T3-L1 cells ref 25; cited from earlier work.
The conditions of test [6]: cited from earlier work.

Read-outs that look alike come from different tables or passages of the source. Peptide text beside a SMILES is read from it.

Experimental for HepG2 cells: The HepG2 cells (Guangzhou Health Institute, Guangzhou, China) in logarithmic growth period were starved with serum-free medium for 12 h. Then, we replaced the medium with a complete medium containing 0.5 mM oleic acid and 0.4% FBS, and cultured this for 2–4 days (replacing the new oleic acid containing medium every day). The cells were divided into groups, and samples were added to each group as follows: Normal group: 1 mL of complete medium containing 0.4% serum; Model group: 1 mL of medium containing 0.5 mM oleic acid and 0.4% FBS; Positive control group: 1 mL of medium containing 2 mM orlistat, 0.5 mM oleic acid and 0.4% FBS; Sample treatment group: adding 1 mL of samples with different concentrations (high, medium, low) and medium containing 0.5 mM oleic acid and 0.4% FBS. […] Then, the paraformaldehyde solution was discarded, PBS was washed 3 times, and 1 mL of oil red O staining solution was added to each well. After dyeing at 37 °C for 1 h, the dye solution was discarded, washed with PBS 3 times, and 1 mL of PBS was added to prevent cell drying. […] According to the instructions of the triglyceride (TG) test box, the TG content of each well was measured using the GPO-PAP method, and the protein content was measured using the BCA method. The results were expressed as the triglyceride content per gram of protein (mmol/g protein).

Consider `CSCC[C@H](NC(=O)[C@H](CC(C)C)NC(=O)[C@H](CC(C)C)NC(=O)CNC(=O)[C@@H](N)CCC(=O)O)C(=O)N[C@@H](Cc1c[nH]c2ccccc12)C(=O)N1CCC[C@H]1C(=O)N[C@@H](Cc1ccc(O)cc1)C(=O)O` [EY-8] (H-EGLLMWPY-OH), for which, at pancreatic lipase [1], the inhibition at 500 µM was 80.47 ± 0.11% and the half-maximal inhibitory concentration (IC50) (usually the concentration that gives 50% inhibition) was 171 µM. Also, at pancreatic lipase [2], the Ki (usually the dissociation constant of the complex between target and ligand, obtained from inhibition or displacement) came out at 578 ± 58.1 µM.

For the compound `CC(C)C[C@H](NC(=O)[C@@H](N)CC(N)=O)C(=O)N[C@@H](Cc1ccc(O)cc1)C(=O)N[C@@H](Cc1ccc(O)cc1)C(=O)N[C@@H](CCCCN)C(=O)N[C@H](C(=O)N[C@H](C(=O)O)C(C)C)C(C)C` [NV-7, NLYYKVV] (H-NLYYKVV-OH), the inhibition at 500 µM at pancreatic lipase [1] was found to be 95.42 ± 0.6%. Moreover, the inhibition constant (Ki) on pancreatic lipase [2] is 77.3 ± 7.65 µM. In addition, the Kd (in general, a measure of binding affinity in units of concentration) was 93.8 µM at pancreatic lipase [3] (298 K), 106 µM on pancreatic lipase [3] (304 K) and 203 µM on pancreatic lipase [3] (310 K).

`CC(C)[C@H](NC(=O)[C@H](Cc1ccc(O)cc1)NC(=O)[C@H](Cc1c[nH]c2ccccc12)NC(=O)[C@@H](N)Cc1c[nH]c2ccccc12)C(=O)N[C@@H](CCCCN)C(=O)O` [WK-5, WWYVK] (H-WWYVK-OH): at pancreatic lipase [1], the inhibition at 500 µM stood at 68.9 ± 1.8% and the IC50 was 246 µM. Besides, the Ki on pancreatic lipase [2] worked out at 578 ± 25.7 µM.

As to `CSCC[C@H](NC(=O)[C@H](CC(C)C)NC(=O)[C@H](CC(C)C)NC(=O)[C@@H](N)Cc1c[nH]c2ccccc12)C(=O)N[C@@H](Cc1c[nH]c2ccccc12)C(=O)N1CCC[C@H]1C(=O)N[C@@H](Cc1ccc(O)cc1)C(=O)N[C@@H](CCCCN)C(=O)O` [WK-8] (H-WLLMWPYK-OH), on pancreatic lipase [1], the inhibition at 500 µM was determined as 67.3 ± 1.1% and the 50% inhibitory concentration (IC50) came out at 52.8 µM. The Ki at pancreatic lipase [2] was 192 ± 25.3 µM.

As to `CCCCCCCCCCC[C@@H](C[C@@H]1OC(=O)[C@H]1CCCCCC)OC(=O)[C@H](CC(C)C)NC=O` [orlistat], the “fat (oil) accumulation in HepG2 cells, oil red O staining” value in the test on HepG2 cells is recorded as “significantly reduce the oil accumulation in cells”.

On to AGY, for which the IC50 at pancreatic lipase [4] is 1180 ± 179 µM.

For CANPHELPNK, in the test with 3T3-L1 preadipocytes, the “inhibition on triglyceride production” value was 19.5%.

As to “Leu-Leu-Val-Val-Try-Pro-Trp-Thr-Gln-Arg [PP1]”, the “inhibitory effect against porcine pancreatic lipase” value in [5] is 47.95%. Also, the “decrease of accumulation of intracellular triacylglycerol” value in the test on 3T3-L1 cells is 27.9%.

Regarding NIF, the IC50 at pancreatic lipase [4] is 1040 ± 179 µM.

For the compound NPVWKRK, the “inhibition on triglyceride production” value in the test on 3T3-L1 preadipocytes is given as 23.7%.

In the case of QWM, the half-maximal inhibitory concentration (IC50) on pancreatic lipase [4] is 986 ± 170 µM.

As for VVYP, the effect on hypertriglyceridemia result in test [6] is “inhibitory effect on hypertriglyceridemia”.
